± gives the expanded uncertainty stated by the source.
Settings: Liquid, Frequency=8 MHz, Pulse-echo method

CCCC [butane]
Settings	speed of sound [m/s]
199.99 K, 40128 kPa	1640.8 ± 0.79
199.99 K, 45132 kPa	1662 ± 0.8
199.99 K, 50136 kPa	1682.6 ± 0.81
200 K, 1101.4 kPa	1447.8 ± 0.72
200 K, 2102.1 kPa	1453.5 ± 0.72
200 K, 3102.8 kPa	1459.2 ± 0.72
200 K, 4103.5 kPa	1464.9 ± 0.72
200 K, 5104.2 kPa	1470.5 ± 0.72
200 K, 6105.1 kPa	1476 ± 0.73
200 K, 7105.9 kPa	1481.5 ± 0.73
200 K, 8106.6 kPa	1487 ± 0.73
200 K, 9107.3 kPa	1492.4 ± 0.73
200 K, 10108 kPa	1497.8 ± 0.74
200 K, 12610 kPa	1510.9 ± 0.74
200 K, 15112 kPa	1523.8 ± 0.75
200 K, 17613 kPa	1536.5 ± 0.75
200 K, 20115 kPa	1548.9 ± 0.75
200 K, 25119 kPa	1573.1 ± 0.76
200 K, 30123 kPa	1596.4 ± 0.77
200 K, 35126 kPa	1619 ± 0.78
200 K, 60143 kPa	1722.2 ± 0.82
200 K, 70150 kPa	1759.8 ± 0.84
200 K, 80157 kPa	1795.8 ± 0.85
200 K, 90164 kPa	1830.2 ± 0.86
200 K, 100171 kPa	1863.2 ± 0.88
201 K, 250.62 kPa	1437.2 ± 0.71
201 K, 600.55 kPa	1439.2 ± 0.71
201 K, 1100.5 kPa	1442.1 ± 0.71
201 K, 1101.5 kPa	1442.2 ± 0.71
201 K, 2101.9 kPa	1448 ± 0.72
201 K, 2102 kPa	1448 ± 0.72
201 K, 3102.6 kPa	1453.7 ± 0.72
201 K, 4103.4 kPa	1459.4 ± 0.72
201 K, 5104 kPa	1465 ± 0.72
220 K, 249.98 kPa	1330.5 ± 10
220 K, 599.68 kPa	1332.8 ± 0.67
220 K, 1100.7 kPa	1336.1 ± 0.67
220 K, 1100.8 kPa	1336.1 ± 0.67
220 K, 2101.6 kPa	1342.7 ± 0.68
220 K, 2101.8 kPa	1342.7 ± 0.68
220 K, 2102.1 kPa	1342.7 ± 0.68
220 K, 2103.4 kPa	1342.6 ± 0.68
220 K, 3102.3 kPa	1349.1 ± 0.68
220 K, 3104.1 kPa	1349.1 ± 0.68
220 K, 4103 kPa	1355.5 ± 0.68
220 K, 4104.7 kPa	1355.5 ± 0.68
220 K, 5103.6 kPa	1361.9 ± 0.68
220 K, 6104.2 kPa	1368.2 ± 0.68
220 K, 7104.9 kPa	1374.3 ± 0.69
220 K, 8105.5 kPa	1380.5 ± 0.69
220 K, 9106.2 kPa	1386.6 ± 0.69
220 K, 10107 kPa	1392.6 ± 0.69
220 K, 12609 kPa	1407.3 ± 0.7
220 K, 15111 kPa	1421.8 ± 0.71
220 K, 17612 kPa	1435.8 ± 0.71
220 K, 20114 kPa	1449.6 ± 0.72
220 K, 25118 kPa	1476.2 ± 0.73
220 K, 30121 kPa	1501.8 ± 0.74
220 K, 35125 kPa	1526.5 ± 0.75
220 K, 40129 kPa	1550.3 ± 0.76
220 K, 45133 kPa	1573.3 ± 0.76
220 K, 50136 kPa	1595.6 ± 0.77
220 K, 60144 kPa	1638.2 ± 0.79
220 K, 70151 kPa	1678.5 ± 0.81
220 K, 80158 kPa	1716.8 ± 0.82
220 K, 90165 kPa	1753.2 ± 0.83
220 K, 100172 kPa	1788.2 ± 0.85
240 K, 252.21 kPa	1219.3 ± 0.63
240 K, 602.15 kPa	1222 ± 0.63
240 K, 1103 kPa	1225.8 ± 0.63
240 K, 2103.5 kPa	1233.3 ± 0.63
240 K, 2104.3 kPa	1233.3 ± 0.63
240 K, 3104.1 kPa	1240.7 ± 0.64
240 K, 3105.1 kPa	1240.7 ± 0.64
240 K, 4104.7 kPa	1248 ± 0.64
240 K, 4105.9 kPa	1248 ± 0.64
240 K, 5105.3 kPa	1255.2 ± 0.64
240 K, 5106.6 kPa	1255.2 ± 0.64
240 K, 6107.3 kPa	1262.3 ± 0.64
240 K, 7108.1 kPa	1269.3 ± 0.65
240 K, 8108.8 kPa	1276.2 ± 0.65
240 K, 9109.5 kPa	1283.1 ± 0.65
240 K, 10110 kPa	1289.8 ± 0.65
240 K, 12612 kPa	1306.4 ± 0.66
240 K, 15113 kPa	1322.5 ± 0.67
240 K, 17615 kPa	1338.1 ± 0.67
240 K, 20116 kPa	1353.3 ± 0.68
240 K, 25120 kPa	1382.7 ± 0.69
240 K, 30123 kPa	1410.7 ± 0.7
240 K, 35127 kPa	1437.6 ± 0.71
240 K, 40130 kPa	1463.4 ± 0.72
240 K, 45134 kPa	1488.2 ± 0.73
240 K, 50138 kPa	1512.2 ± 0.74
240 K, 60145 kPa	1557.8 ± 0.76
240 K, 70152 kPa	1600.8 ± 0.78
240 K, 80158 kPa	1641.4 ± 0.79
240 K, 90165 kPa	1680 ± 0.81
240 K, 100172 kPa	1716.9 ± 0.82
259.99 K, 12610 kPa	1208.1 ± 0.62
259.99 K, 80158 kPa	1569.8 ± 0.76
259.99 K, 90165 kPa	1610.4 ± 0.78
260 K, 251.45 kPa	1109.1 ± 0.58
260 K, 601.45 kPa	1112.2 ± 0.59
260 K, 1102.2 kPa	1116.6 ± 0.59
260 K, 2102.8 kPa	1125.3 ± 0.59
260 K, 2103.1 kPa	1125.3 ± 0.59
260 K, 3103.4 kPa	1133.8 ± 0.59
260 K, 3103.8 kPa	1133.8 ± 0.59
260 K, 4104.1 kPa	1142.1 ± 0.6
260 K, 4104.5 kPa	1142.2 ± 0.6
260 K, 5104.7 kPa	1150.3 ± 0.6
260 K, 5105.2 kPa	1150.4 ± 0.6
260 K, 6105.9 kPa	1158.5 ± 0.6
260 K, 7106.5 kPa	1166.4 ± 0.61
260 K, 8107.2 kPa	1174.3 ± 0.61
260 K, 9108 kPa	1182 ± 0.61
260 K, 10108 kPa	1189.6 ± 0.62
260 K, 15112 kPa	1226 ± 0.63
260 K, 17613 kPa	1243.4 ± 0.64
260 K, 20115 kPa	1260.3 ± 0.64
260 K, 25119 kPa	1292.5 ± 0.66
260 K, 30122 kPa	1323.2 ± 0.67
260 K, 35126 kPa	1352.3 ± 0.68
260 K, 40129 kPa	1380.2 ± 0.69
260 K, 45133 kPa	1406.9 ± 0.7
260 K, 50136 kPa	1432.6 ± 0.71
260 K, 60144 kPa	1481.3 ± 0.73
260 K, 70151 kPa	1526.8 ± 0.75
260 K, 100172 kPa	1649 ± 0.79
280 K, 250.96 kPa	999.47 ± 0.54
280 K, 601 kPa	1003.1 ± 0.54
280 K, 1101.7 kPa	1008.2 ± 0.55
280 K, 2102.4 kPa	1018.3 ± 0.55
280 K, 3103 kPa	1028.1 ± 0.55
280 K, 3103.1 kPa	1028.2 ± 0.55
280 K, 4103.6 kPa	1037.8 ± 0.56
280 K, 4103.9 kPa	1037.8 ± 0.56
280 K, 5104.1 kPa	1047.2 ± 0.56
280 K, 5104.6 kPa	1047.2 ± 0.56
280 K, 6105.4 kPa	1056.5 ± 0.56
280 K, 7106.1 kPa	1065.6 ± 0.57
280 K, 8106.8 kPa	1074.5 ± 0.57
280 K, 9107.5 kPa	1083.2 ± 0.57
280 K, 10108 kPa	1091.8 ± 0.58
280 K, 12610 kPa	1112.6 ± 0.59
280 K, 15112 kPa	1132.7 ± 0.59
280 K, 17613 kPa	1151.9 ± 0.6
280 K, 20115 kPa	1170.5 ± 0.61
280 K, 25118 kPa	1206 ± 0.62
280 K, 30122 kPa	1239.3 ± 0.64
280 K, 35125 kPa	1270.9 ± 0.65
280 K, 40128 kPa	1300.9 ± 0.66
280 K, 45132 kPa	1329.5 ± 0.67
280 K, 50135 kPa	1357 ± 0.68
280 K, 60142 kPa	1408.7 ± 0.7
280 K, 70149 kPa	1456.8 ± 0.72
280 K, 80159 kPa	1502 ± 0.74
280 K, 90166 kPa	1544.6 ± 0.75
280 K, 100173 kPa	1584.9 ± 0.77
299.99 K, 80158 kPa	1438.2 ± 0.71
299.99 K, 90165 kPa	1482.7 ± 0.73
299.99 K, 100172 kPa	1524.7 ± 0.75
300 K, 599.94 kPa	893.83 ± 0.5
300 K, 2102 kPa	911.89 ± 0.51
300 K, 2104.2 kPa	911.91 ± 0.51
300 K, 3102.8 kPa	923.46 ± 0.51
300 K, 3104.9 kPa	923.48 ± 0.51
300 K, 4103.6 kPa	934.71 ± 0.52
300 K, 4105.7 kPa	934.73 ± 0.52
300 K, 5104.4 kPa	945.67 ± 0.52
300 K, 5105.9 kPa	945.68 ± 0.52
300 K, 6106.5 kPa	956.35 ± 0.53
300 K, 7107.2 kPa	966.78 ± 0.53
300 K, 8107.8 kPa	976.95 ± 0.53
300 K, 9108.4 kPa	986.91 ± 0.54
300 K, 10109 kPa	996.68 ± 0.54
300 K, 12610 kPa	1020.2 ± 0.55
300 K, 15112 kPa	1042.6 ± 0.56
300 K, 17614 kPa	1064 ± 0.57
300 K, 20115 kPa	1084.5 ± 0.58
300 K, 25118 kPa	1123.3 ± 0.59
300 K, 30122 kPa	1159.6 ± 0.6
300 K, 35125 kPa	1193.6 ± 0.62
300 K, 40129 kPa	1225.8 ± 0.63
300 K, 45132 kPa	1256.4 ± 0.64
300 K, 50136 kPa	1285.6 ± 0.65
300 K, 60143 kPa	1340.3 ± 0.67
300 K, 70150 kPa	1390.9 ± 0.69
300.01 K, 1100.4 kPa	899.93 ± 0.5
320 K, 601.27 kPa	783.22 ± 0.46

From the NIST ThermoML archive (doi:10.1021/acs.jced.6b00577)
